Laboratory results reported in patent publication US20240269139A1, “COMPOUNDS FOR TARGETED PROTEIN DEGRADATION OF KINASES” (DANA-FARBER CANCER INSTITUTE, INC., priority 2020, published 2024).
Read-outs that look alike come from different tables or passages of the source.

Tests used:
Type in all cases: cell-based
[1] = molecular target: protein kinases (human kinome) (Homo sapiens, UniProt P53667); details: LIMK1 (P53667-1)
[2] = molecular target: protein kinases (human kinome) (Homo sapiens, UniProt Q15118); details: PDK1 Q15118
Sequence of protein kinases (human kinome) (Homo sapiens, UniProt Q15118) (Q15118 29-436): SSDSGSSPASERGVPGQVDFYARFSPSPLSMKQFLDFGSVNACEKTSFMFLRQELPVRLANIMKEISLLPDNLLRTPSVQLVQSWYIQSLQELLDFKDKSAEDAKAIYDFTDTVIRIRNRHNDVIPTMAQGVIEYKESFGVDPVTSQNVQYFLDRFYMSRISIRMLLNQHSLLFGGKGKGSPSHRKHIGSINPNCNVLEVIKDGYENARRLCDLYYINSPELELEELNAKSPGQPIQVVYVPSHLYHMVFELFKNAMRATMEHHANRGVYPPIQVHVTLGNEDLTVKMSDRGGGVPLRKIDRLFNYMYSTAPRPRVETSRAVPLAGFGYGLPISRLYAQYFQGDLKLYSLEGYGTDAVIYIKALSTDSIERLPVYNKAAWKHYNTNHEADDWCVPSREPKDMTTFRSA

[3] = molecular target: T1, protein kinases (human kinome) (Homo sapiens, UniProt Q4G0N4); details: Accession Q4GON4, direction down
T1 sequence (Q4G0N4 63-442): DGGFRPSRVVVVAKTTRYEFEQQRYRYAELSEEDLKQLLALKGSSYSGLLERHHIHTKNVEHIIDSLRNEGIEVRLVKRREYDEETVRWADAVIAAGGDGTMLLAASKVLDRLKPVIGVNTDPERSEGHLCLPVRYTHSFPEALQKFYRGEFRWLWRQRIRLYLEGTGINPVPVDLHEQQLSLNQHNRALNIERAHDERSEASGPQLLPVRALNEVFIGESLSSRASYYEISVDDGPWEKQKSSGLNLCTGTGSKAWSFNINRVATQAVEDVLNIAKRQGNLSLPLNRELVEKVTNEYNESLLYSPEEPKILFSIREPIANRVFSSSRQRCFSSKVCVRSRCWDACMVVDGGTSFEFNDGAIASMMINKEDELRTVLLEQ

[4] = direction down, experiment wp137
[5] = direction down, experiment wp147, 1 uM
[6] = direction down, experiment wp147, 2 uM
[7] = direction down, experiment wp147, 4 uM

Sequence of protein kinases (human kinome) (Homo sapiens, UniProt P53667) (P53667 whole entry): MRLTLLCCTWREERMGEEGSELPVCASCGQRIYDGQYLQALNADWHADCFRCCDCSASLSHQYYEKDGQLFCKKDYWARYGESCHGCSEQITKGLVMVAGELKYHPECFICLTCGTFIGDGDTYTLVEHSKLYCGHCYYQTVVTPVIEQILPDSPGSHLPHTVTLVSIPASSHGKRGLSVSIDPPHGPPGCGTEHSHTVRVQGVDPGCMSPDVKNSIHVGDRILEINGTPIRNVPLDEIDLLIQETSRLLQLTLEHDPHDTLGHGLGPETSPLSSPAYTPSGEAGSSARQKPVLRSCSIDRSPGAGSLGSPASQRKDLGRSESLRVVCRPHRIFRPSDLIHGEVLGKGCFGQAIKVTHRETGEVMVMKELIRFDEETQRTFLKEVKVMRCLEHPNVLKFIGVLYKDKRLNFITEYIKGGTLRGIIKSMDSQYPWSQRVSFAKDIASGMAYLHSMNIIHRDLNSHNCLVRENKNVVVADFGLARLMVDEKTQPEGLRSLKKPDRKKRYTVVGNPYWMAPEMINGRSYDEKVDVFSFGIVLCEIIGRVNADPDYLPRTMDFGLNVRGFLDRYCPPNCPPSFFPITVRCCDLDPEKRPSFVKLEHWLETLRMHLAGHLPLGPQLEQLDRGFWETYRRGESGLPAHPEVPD

Structure (SMILES) | logFC LIMK1 [1, 4] | logFC LIMK1 [1, 5] | logFC LIMK1 [1, 6] | logFC LIMK1 [1, 7] | logFC LIMK1 ([1]; experiment wp137, down) | logFC LIMK1 ([1]; experiment wp147, 1 uM, down) | logFC LIMK1 ([1]; experiment wp147, 2 uM, down) | logFC LIMK1 ([1]; experiment wp147, 4 uM, down) | logFC ([2]; experiment wp147, 1 uM) | logFC PDK1 ([2]; experiment wp147, 1 uM) | logFC ([2]; experiment wp147, 4 uM) | logFC PDK1 ([2]; experiment wp147, 4 uM) | logFC NADK2 ([3]; experiment wp147, 4 uM) | also measured
CC(C)(C)c1nc(-c2cccc(NS(=O)(=O)c3c(F)cccc3F)c2F)c(-c2ccnc(NCCOCCNC(=O)CCOCCOCCNc3cccc4c3C(=O)N(C3CCC(=O)NC3=O)C4=O)n2)s1 (stereo not shown) [DD.03.106] | −1.981 | −2.959 | −2.2 | −0.637 | −1.981 | −2.959 | −2.2 | −0.637 | −0.3363 | −0.3363 | −0.6592 | −0.6592 | −0.6976 | logFC LIMK1 ([1]; direction down, experiment wp047): −1.637; logFC LIMK1 ([1]; experiment wp047, down): −1.637
CC(C)(C)c1nc(-c2cccc(NS(=O)(=O)c3c(F)cccc3F)c2F)c(-c2ccnc(NCCOCCNC(=O)CCOCCOCCNc3cccc4c3CN(C3CCC(=O)NC3=O)C4=O)n2)s1 (stereo not shown) [DD.03.107] | −1.222 | −0.9691 | −1.375 | −1.536 | −1.222 | −0.9691 | −1.375 | −1.536 | −0.4722 | −0.4722 | −1.108 | −1.108 | −0.9504 | logFC LIMK1 ([1]; direction down, experiment wp056): −0.9594; logFC LIMK1 ([1]; experiment wp056, down): −0.9594; logFC ([2]; experiment wp147, 2 uM): −0.4534; logFC PDK1 ([2]; experiment wp147, 2 uM): −0.4534; logFC NADK2 ([3]; experiment wp147, 1 uM): −0.5404; logFC NADK2 ([3]; experiment wp147, 2 uM): −0.4442
O=C(COc1cccc2c1C(=O)N(C1CCC(=O)NC1=O)C2=O)NCCCCCCCC(=O)NC1(c2ccc(-c3nc4ccn5c(=O)[nH]nc5c4cc3-c3ccccc3)cc2)CCC1 (stereo not shown) [INY.01.140.1] | – | – | – | – | – | – | – | – | – | – | – | – | – | logFC ([2]; experiment wp081): −0.4328; logFC PDK1 ([2]; experiment wp081): −0.4328; logFC NADK2 ([3]; experiment wp081): −0.3886
C=CCn1c(=O)c2cnc(Nc3ccc(N4CCN(CCCNc5cccc6c5C(=O)N(C5CCC(=O)NC5=O)C6=O)CC4)cc3)nc2n1-c1cccc(C(C)(C)O)n1 (stereo not shown) [ZNL.02.096] | – | – | – | – | – | – | – | – | – | – | – | – | – | logFC ([2]; experiment wp056): −0.3685; logFC PDK1 ([2]; experiment wp056): −0.3685; logFC NADK2 ([3]; experiment wp118): −0.4004
